Measured values taken from patent publication US20050170391A1, “TAUT1 transporters expressed in blood brain barrier cells” (Xenoport, Inc., priority 2004, published 2005).

Target: T1, TAUT1 (Homo sapiens, UniProt P31641)
T1 sequence (P31641 1-620): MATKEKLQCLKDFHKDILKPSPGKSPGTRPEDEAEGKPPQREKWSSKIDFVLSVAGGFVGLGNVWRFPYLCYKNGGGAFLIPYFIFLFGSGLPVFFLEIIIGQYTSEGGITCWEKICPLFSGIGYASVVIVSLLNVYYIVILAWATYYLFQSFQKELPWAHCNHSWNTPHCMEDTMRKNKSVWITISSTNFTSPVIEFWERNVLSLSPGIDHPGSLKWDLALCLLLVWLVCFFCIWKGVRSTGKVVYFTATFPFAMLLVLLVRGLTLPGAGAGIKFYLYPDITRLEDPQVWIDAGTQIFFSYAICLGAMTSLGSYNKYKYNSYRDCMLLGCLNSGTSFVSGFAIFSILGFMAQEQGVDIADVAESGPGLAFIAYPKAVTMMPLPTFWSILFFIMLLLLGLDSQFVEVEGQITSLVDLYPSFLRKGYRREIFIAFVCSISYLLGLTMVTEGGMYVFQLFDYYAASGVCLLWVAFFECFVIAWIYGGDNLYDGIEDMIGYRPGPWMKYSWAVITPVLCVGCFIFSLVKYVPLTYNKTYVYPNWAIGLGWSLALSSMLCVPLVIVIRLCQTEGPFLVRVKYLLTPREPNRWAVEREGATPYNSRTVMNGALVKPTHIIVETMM
Test: hTAUT1 competition uptake assay in HEK-TREx-TAUT1 cells
Assay type: cell-based
Set-up: expressed in transfected cells; host or cells: HEK-TREx cells (HEK-TREx-TAUT1 inducible line)
Conditions: HEK-TREx-TAUT1 cells induced with tetracycline; ^3H-GABA radiolabel (taurine: ^3H-taurine per Example 9); 15 min, room temperature
Protocol: A modified competition uptake assay was developed to determine the ability of a test compound(s) to inhibit the uptake of radiolabeled substrates into HEK-TREx-TAUT1 cells induced to over-express hTAUT. The results are stated as affinities (IC50).
The competition uptake assay were prepared as follows: Compounds were prepared for assay by diluting a 100 mM stock concentration (in DMSO) to the appropriate working concentration. Typically, seven-point dose response curves were prepared starting at a final assay concentration of 1 mM and carrying out three-fold dilutions. These dilutions were prepared by making a working “compound” plate that contained a 2× solution of the desired starting concentration of each test compound in duplicate in row A of a v-bottom microtiter plate. Six 3-fold serial dilutions (from row B to G) were made into the HBSS assay buffer (9.8 g/L Hank's Balance Salts (Sigma; H-1387), 2.6 g/L HEPES (10 mM) (Sigma; H-3375), 0.35 g/L NaHCO3 (4.2 mM) (Sigma; S-6297), pH to 7.4 with 5N NaOH) (with the appropriate amount of DMSO so that the DMSO concentration remains constant at all dilutions). The resulting “compound” plate contained serial dilutions of six compounds in duplicate.
^3H-GABA was diluted into HBSS buffer to a final concentration of 4,000 cpm/μl. Enough solution was prepared to allow addition of 25 μl/well (the final concentration was 100,000 cpm/well).
HEK-TREx-hTAUT cells, plated in 96-well plates and treated with tetracycline (or tet analog (e.g., doxycycline), were removed from the incubator. Growth media was removed from the cells, and the cells were washed twice in room temperature HBSS (100 μl/well/wash) using a 96-well plate washer (Bio Tek ELX405). Alternatively, cells were washed manually with equivalent volumes using a multichannel pipettor. Immediately before beginning the assay, the final 100 μl wash solution was removed from the cells by aspiration.
Using a 96-well pipettor, 25 μl from the “compound” plate was added to each well of the cell plate. The assay was started by adding 25 μl of the ^3H-GABA working solution. The plate was incubated at room temperature for 15 minutes. The assay was stopped by washing the cells four times with ice-cold HBSS buffer using a ELX 405 plate washer (100 μl buffer/well/wash) having an angled buffer dispenser.
Scintillation fluid (200 μl) (Optiphase Supermix (Perkin Elmer) was added to each well, and the plate was covered with a 96-well adhesive plate cover and placed on a shaker for 10 minutes. The plates were counted on a 96-well plate scintillation counter for 60 sec/well. The data were analyzed using a sigmoidal dose response curve-fitting program ((Prism, GraphPad, Inc, San Diego, Calif.; equation: one-site competition).
FIG. 7 depicts the results of a competition experiment using HEK-TREx-TAUT1 cells. ^3H-taurine was used as the substrate and unlabeled taurine was used as the competitor. The competition experiment was performed as described in Example 7. Non-specific uptake was determined by measuring the uptake into cells not induced to express the transporter (“no tet”). […] In control cells, uptake of labeled taurine remained at background levels and was largely unaffected by an excess of unlabeled taurine.
These four compounds, IAA, R,S-Baclofen, GPA, and GABA, were tested in both competition and direct uptake assays. One notable difference in the competition assay format compared to the literature is that ^3H-GABA was used, rather than ^3H-taurine, as the radiolabel. […] Therefore, to develop a competition assay that is as sensitive as possible, ^3H-GABA, a substrate with a much […] affinity, was used.

| Compound | IC50 [µM] | pIC50 |
| --- | --- | --- |
| NCCCC(=O)O [GABA, γ-aminobutyric acid] | 54 |  |
| O=C(O)Cc1c[nH]cn1 [IAA, 4-imidazole acetic acid] | 56 |  |
| N=C(N)NCCC(=O)O [GPA] | 24 | 4.7 |
| NCC(CC(=O)O)c1ccc(Cl)cc1 (stereo not drawn) [R,S-Baclofen] | 1100 | 3.0 |
